Test [1] deals with human PRMT8 (Homo sapiens, UniProt Q9NR22). Put plainly: PRMT8 Biochemical Assay (3H-SAM Flashplate, peptide substrate). The note with it: single experiment or average of multiple experiments. In outline:
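Methylation of a biotin-tagged histone H4 peptide (residues 31-45) by recombinant PRMT8 was measured as 3H transfer from 3H-SAM, after a 30 min room-temperature compound preincubation in Bicine buffer pH 7.6. Reactions were quenched with unlabelled SAM to 400 uM final, then bound counts were read by streptavidin Flashplate. IC50 came from a Hill fit of % inhibition relative to max and SAH min controls.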

Test [2] deals with mono-methyl arginine in RKO cells. The experiment in a line: RKO Methylation Assay, In Cell Western (ICW) for mono-methyl arginine and DNA content. Format: cell-based. The note with it: for EC30: Homo sapiens, RKO, 72 h; for EC30 (In Cell Western data): class symbols. In a few lines: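 After fixation, mono-methyl arginine and DNA (DRAQ5) were measured by infrared In-Cell Western imaging at 700/800 nm in RKO cells exposed to compounds for 72 hours. Percent activation used DMSO wells as minimum and 20 μM reference compound as maximum; EC30 curves fitted on triplicate wells.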

Setting [3] is: RKO cells, 72 hours, mono-methyl arginine, percent activation, single experiment or average of multiple experiments, read-out: EC30 (In Cell Western data, Numerical).
Setting [4] is: RKO cells, 72 hours, mono-methyl arginine, percent activation.
[5] abbreviates: read-out: EC30 (In Cell Western data, Numerical, μM).

Structures are written as SMILES. Where two headings read alike, the source gives them in different places. Some results are limits rather than exact numbers.

The term IC50 denotes the concentration that inhibits the measured activity by half. As usually defined, the EC30 is the concentration needed for an effect of 30%.

Sequence of human PRMT8 (Q9NR22 whole entry, the tested form may be a part): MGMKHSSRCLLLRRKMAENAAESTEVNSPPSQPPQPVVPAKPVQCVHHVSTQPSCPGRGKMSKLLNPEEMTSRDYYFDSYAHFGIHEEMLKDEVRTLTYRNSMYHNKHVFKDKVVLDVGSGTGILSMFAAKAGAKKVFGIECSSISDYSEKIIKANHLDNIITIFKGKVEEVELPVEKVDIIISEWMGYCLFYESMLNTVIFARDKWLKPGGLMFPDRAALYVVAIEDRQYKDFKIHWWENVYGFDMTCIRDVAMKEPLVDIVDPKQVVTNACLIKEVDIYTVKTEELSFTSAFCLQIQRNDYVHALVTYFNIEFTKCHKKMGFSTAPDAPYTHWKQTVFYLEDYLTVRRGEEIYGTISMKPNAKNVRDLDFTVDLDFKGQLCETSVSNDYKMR

As for `CNCCN(C)Cc1c[nH]nc1-c1cccc(OC(F)(F)F)c1` [Compound 39], in test [1], the midpoint of inhibition, the IC50, lay at 0.596 µM. For `CN(CCN)Cc1c[nH]nc1-c1ccc(OC(F)F)cc1` [Compound 94], in test [2] (setting [3]), the concentration for an effect of 30% (EC30) was determined as 1.78 µM. Further, the IC50 in test [1] came out at 0.198 µM. Taken in the same sequence, the figures for `CN(CCN)Cc1c[nH]nc1-c1ccc(Cl)cc1` [Compound 95] were 1.23 µM and 0.207 µM. Consider `CN(CCN)Cc1nn(C)cc1-c1ccc(C#N)cc1` [Compound 83], for which, in test [2] (setting [3]), the EC30 came to 6.75 µM. The compound also came in with an IC50 in test [1] of 0.71 µM. `Cc1ccc(-c2n[nH]cc2CN(C)CCN)c(Cl)c1` [Compound 90]: the EC30 in test [2] (setting [3]) came to 10.4 µM. The compound also came in with an IC50 in test [1] of 1.38 µM. Take `Cc1ccc(Cl)c(-c2n[nH]cc2CN(C)CCN)c1` [Compound 91]: the EC30 in test [2] (setting [3]) is above 20 µM. The same compound yielded an IC50 in test [1] of 6.9 µM. On to `CN(CCN)Cc1c[nH]nc1-c1ccc(Cl)cc1Cl` [Compound 86], for which, in test [2] (setting [3]), the EC30 was 5.63 µM. In addition, the IC50 in test [1] is 0.74 µM. Taken in the same sequence, the figures for `CN(CCN)Cc1c[nH]nc1-c1ccc(F)cc1Cl` [Compound 89] were 11 µM and 1.73 µM. As to `CNCCN(C)Cc1c[nH]nc1-c1ccc(CC#N)cc1` [Compound 34], the “EC30 (In Cell Western data)” value in test [2] (setting [4]) is “C (“C” indicates an EC30 ≧ 12.01 μM)”. Besides, half-maximal inhibition in test [1] (IC50) required 0.773 µM. Consider `CN(CCN)Cc1c[nH]nc1-c1ccc(N2CCNCC2)cc1` [Compound 82], for which the EC30 in test [2] (setting [3]) was above 20 µM. Moreover, 2.47 µM corresponded to half-maximal inhibition in test [1] (IC50).

Consider `CC(C)Oc1ccc(-c2n[nH]cc2CN(C)CCN)cc1Cl` [Compound 168], for which the EC30 in test [2] (setting [3]) came to 0.066 µM. For `CN(CCN)Cc1c[nH]nc1-c1ccccc1` [Compound 73], the EC30 in test [2] (setting [3]) amounted to 14.7 µM. Further, in test [1], the IC50 was determined as 0.959 µM. The corresponding values for `CN(CCN)Cc1cnn(C2COC2)c1-c1ccc(F)cc1` [Compound 81] are above 20 µM and 3.45 µM. Taken in the same sequence, the figures for `CN(CCN)Cc1c[nH]nc1-c1ccc(C(C)(C)C)cc1` [Compound 74] were 6.34 µM and 0.185 µM.

Compound `CCN(CCNC)Cc1c[nH]nc1-c1ccc(F)cc1` [Compound 9] had an IC50 in test [1] of 0.396 µM. Take `CN(CCN)Cc1c[nH]nc1-c1ccc(F)cc1` [Compound 1]: the EC30 in test [2] (setting [3]) is 7.4 µM. In test [1], `CN(CCN)Cc1c[nH]nc1-c1ccccc1F` [Compound 72] returned an IC50 of 3.73 µM. For the compound `CNCCN(C)Cc1c[nH]nc1-c1cccc(NC(C)=O)c1` [Compound 42], the “EC30 (In Cell Western data)” value in test [2] (setting [4]) is recorded as “C (“C” indicates an EC30 ≧ 12.01 μM)”. The compound further registered an IC50 in test [1] of 1.54 µM. `CN(CCN)Cc1n[nH]cc1-c1ccc(F)cc1` [Compound 69]: the EC30 in test [2] (setting [3]) is 7.99 µM. In test [1], this compound came in with an IC50 of 2.04 µM. Taken in the same sequence, the figures for `NCCN(Cc1c[nH]nc1-c1ccc(F)cc1)C1CC1` [Compound 78] were 10.6 µM and 1.49 µM. On to `COCCn1cc(CN(C)CCN)c(-c2ccc(F)cc2)n1` [Compound 5], for which the EC30 in test [2] (setting [3]) is above 20 µM. Also, half-maximal inhibition in test [1] (IC50) required 4.2 µM. `CC(C)Oc1ccc(-c2n[nH]cc2CN(C)CCN)cc1` [Compound 67]: the EC30 in test [2] (setting [3]) is 0.507 µM.

Turning to `CNCCN(C)Cc1c[nH]nc1-c1ccccc1NS(C)(=O)=O` [Compound 41], in test [2] (setting [4]), the “EC30 (In Cell Western data)” value is reported as “C (“C” indicates an EC30 ≧ 12.01 μM)”. For the same compound, in test [1], the IC50 was determined as 40 µM. Turning to `Cc1ccc(-c2n[nH]cc2CN(C)CCN)c(C)c1` [Compound 88], the EC30 in test [2] (setting [3]) stood at 14.5 µM. In addition, in test [1], the IC50 stood at 1.89 µM. For `CNCCN(C)Cc1c[nH]nc1-c1ccc(-c2ccccc2)cc1` [Compound 47], the “EC30 (In Cell Western data)” value in test [2] (setting [4]) is given as “A (“A” indicates an EC30 ≦ 3.00 μM)”. Moreover, the “EC30 (In Cell Western data, Numerical, μM)” value in test [2] (RKO cells, 72 hours, mono-methyl arginine, percent activation, single experiment or average of multiple experiments) amounted to 0.104 µM. Moreover, in test [1], inhibition was half-maximal at 0.0908 µM (IC50). Take `CN(CCN)Cc1c[nH]nc1-c1ccc(C(F)(F)F)cc1C(F)(F)F` [Compound 85]: the EC30 in test [2] (setting [5]) is above 20 µM. This compound also yielded a half-maximal inhibitory concentration (IC50) in test [1] of 4.26 µM. Compound `CNCCN(C)Cc1c[nH]nc1-c1ccccc1F` [Compound 48] gave an IC50 in test [1] of 2.17 µM. That is a single-digit micromolar value. For the compound `CN(CCN)Cc1cnn(C)c1-c1ccc(F)cc1` [Compound 4], the EC30 in test [2] (setting [5]) turned out to be 12.1 µM. The IC50 in test [1] amounted to 2.43 µM. With `CNCCN(C)Cc1c[nH]nc1-c1cccc(N)c1` [Compound 32], the “EC30 (In Cell Western data)” value in test [2] (setting [4]) was “C (“C” indicates an EC30 ≧ 12.01 μM)”. Further, the IC50 in test [1] is 1.53 µM. Take `CN(CCN)Cc1c[nH]nc1-c1cccc(F)c1` [Compound 71]: the EC30 in test [2] (setting [3]) is 3.72 µM. In test [1], this compound displayed an IC50 of 0.347 µM. Consider `CN(CCN)Cc1c[nH]nc1-c1ccc(C(F)(F)F)cc1` [Compound 92], for which the EC30 in test [2] (setting [3]) stood at 0.956 µM. This compound had an IC50 in test [1] of 0.152 µM. In the case of `CNCCN(C)Cc1cnn(C)c1-c1ccc(F)cc1` [Compound 10], 0.693 µM corresponded to half-maximal inhibition in test [1] (IC50). On to `CN(CCN)Cc1cn(C2COC2)nc1-c1ccc(F)cc1` [Compound 77], for which the EC30 in test [2] (setting [5]) stood at 12.5 µM. The compound further gave an IC50 in test [1] of 1.66 µM.

For the compound `CN(CCN)Cc1c[nH]nc1-c1cccc(C#N)c1` [Compound 70], in test [2] (setting [3]), the EC30 was above 20 µM. This compound also gave an IC50 in test [1] of 2.49 µM.

In the case of `COc1ccc(-c2n[nH]cc2CN(C)CCN)c(OC)c1` [Compound 87], the EC30 in test [2] (setting [3]) is above 20 µM. This compound came in with an IC50 in test [1] of 3.11 µM.

On to `CNCCN(C)Cc1c[nH]nc1-c1ccccc1O` [Compound 35], for which the “EC30 (In Cell Western data)” value in test [2] (setting [4]) is “C (“C” indicates an EC30 ≧ 12.01 μM)”. Moreover, in test [1], the IC50 turned out to be 24.8 µM. Turning to `CN(CCN)Cc1c[nH]nc1-c1ccc(OC(F)(F)F)cc1` [Compound 93], in test [2] (setting [3]), the EC30 is 1.11 µM. For the same compound, half-maximal inhibition in test [1] (IC50) was put at 0.0761 µM.

As to `CC(C)N(CCN)Cc1c[nH]nc1-c1ccc(F)cc1` [Compound 75], the EC30 in test [2] (setting [3]) is above 20 µM. The compound further displayed an IC50 in test [1] of 2.51 µM. Regarding `CNCCN(C)Cc1c[nH]nc1-c1cccc(C(C)=O)c1` [Compound 44], the “EC30 (In Cell Western data)” value in test [2] (setting [4]) was “C (“C” indicates an EC30 ≧ 12.01 μM)”. In addition, the midpoint of inhibition in test [1], the IC50, lay at 0.522 µM.

With `CN(CCN)Cc1cn(C)nc1-c1ccc(F)cc1` [Compound 3], the EC30 in test [2] (setting [3]) was determined as 16.2 µM. For the same compound, in test [1], 0.96 µM corresponded to half-maximal inhibition (IC50).

For the origin of these results see US9776972B2, “Pyrazole derivatives as arginine methyltransferase inhibitors and uses thereof” (priority 2013, dated 2017).
